A word on the AC50: it is the concentration at which the activity in the assay is half-maximal. For orientation: IC50 means the concentration that gives 50% inhibition.

A value given as a limit tells only on which side of the number the result lay.

This note sets out measurements from US20230365566A1, “HETEROCYCLIC AMIDES AND THEIR USE FOR MODULATING SPLICING” (REMIX THERAPEUTICS INC., priority 2020, published 2023).

Format in all cases: cell-based
In test [1] the test system is HTT mRNA alternative junction (AJ). The experiment in a line: Splicing RT-qPCR assay, increase of HTT alternative junction (AJ) mRNA. As to conditions: A673 or K562 cells, 24 hours compound treatment, concentration having 50% response in AJ increase. In a few lines:
(§1)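 A673 (DMEM, 10% FBS) or K562 (IMDM, 10% FBS) cells exposed 24 h at 37 °C to an 11-point 3-fold series, top dose 10 uM final, DMSO ≤0.25%. Lysates assayed by RT-qPCR for HTT CJ and AJ, normalized to GAPDH, GUSB or PPIA and DMSO control via 2^(−ΔΔCt).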
Background: Real-time PCR tracks product formation cycle by cycle.

The test system of another test is HTT CJ mRNA. Description: Gene panel canonical junction qPCR assay, HTT. As to conditions: protocol of Example 42, read-out: HTT IC50 (decrease in CJ mRNA levels). In a few lines: (§2)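 A673 or K562 cells treated 24 h at 37° C with 11-point 3-fold dilutions (top 10 uM, DMSO ≤0.25%). Canonical junction mRNA quantified by RT-qPCR, normalized to GAPDH, GUSB or PPIA and DMSO control (2^(−ΔΔCt)). 4-parameter logistic fit gives IC50 for CJ decrease.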

For another test, the system named is Target C CJ mRNA. The experiment in a line: Gene panel canonical junction qPCR assay, Target C. To be noted: protocol of Example 42, read-out: Target C IC50 (decrease in CJ mRNA levels). The essentials: as §2
The test system of test [2] is HTT mRNA canonical junction (CJ). The experiment in a line: Splicing RT-qPCR assay, decrease of HTT canonical junction (CJ) mRNA. As to conditions: A673 or K562 cells, 24 hours compound treatment, concentration having 50% response in CJ decrease. In a few lines:
as §1

A further test concerns SMN2 CJ mRNA. The experiment in a line: Gene panel canonical junction qPCR assay, SMN2. As to conditions: protocol of Example 42, read-out: SMN2 IC50 (decrease in CJ mRNA levels). The essentials: as §2

For `Cc1cn2cc(NC(=O)c3ccc(N4CCNCC4)c4cn(C)nc34)cc(Cl)c2n1` [Compound 269], the AC50 in test [1] and in test [2] was 100 to 1000 nM in each case. Moreover, the IC50 in the test on HTT CJ mRNA is 100 to 1000 nM; in the test with Target C CJ mRNA, 1000 to 10000 nM; with SMN2 CJ mRNA, less than 100 nM.
Consider `Cn1cc2c(N3CCNCC3)ccc(C(=O)Nc3cn[nH]c3)c2n1` [Compound 270], for which the half-maximal activity concentration (AC50) in test [1] and in test [2] was greater than 10000 nM each time. The IC50 with HTT CJ mRNA, in the test on Target C CJ mRNA and with SMN2 CJ mRNA was greater than 10000 nM each time.
On to `Cc1cn2cc(NC(=O)c3ccc(C4CC(C)(C)NC(C)(C)C4)c4cc(C)oc34)cc(F)c2n1` [Compound 271, N-[8-fluoro-2-methylimidazo[1,2-a]pyridin-6-yl]-2-methyl-4-(2,2,6,6-tetramethylpiperidin-4-yl)-1-benzofuran-7-carboxamide], for which the half-maximal activity concentration (AC50) in test [1] and in test [2] was greater than 10000 nM in each case. The IC50 in the test with HTT CJ mRNA was greater than 10000 nM; in the test on Target C CJ mRNA, greater than 10000 nM; with SMN2 CJ mRNA it was 100 to 1000 nM.
For the molecule `Cc1cn2cc(NC(=O)c3ccc(N4CCC(N5CCCC5)C4)c4cn(C)nc34)cc(F)c2n1` (stereo not drawn) [Compound 272], the AC50 in test [1] and in test [2] was 100 to 1000 nM each time. Moreover, the values for the IC50 in the test on HTT CJ mRNA, in the test with Target C CJ mRNA and in the test with SMN2 CJ mRNA were 100 to 1000 nM, 100 to 1000 nM and less than 100 nM, respectively.
For `Cc1cn2cc(NC(=O)c3ccc(N4CCNCC4)c4cn(C)nc34)nc2c(C)n1` [Compound 273], the AC50 in test [1] and in test [2] was greater than 10000 nM throughout. The IC50 in the test with HTT CJ mRNA was greater than 10000 nM; in the test with Target C CJ mRNA it was greater than 10000 nM; in the test with SMN2 CJ mRNA it was less than 100 nM.
As for `Cc1cn2cc(NC(=O)c3ccc(N4CC(C)(C)NC(C)(C)C4)c4cn(C)nc34)cc(F)c2n1` [Compound 274], the values for the AC50 in test [1] and in test [2] were greater than 10000 nM and 1000 to 10000 nM, respectively. For the same molecule, the values for the IC50 in the test on HTT CJ mRNA, in the test on Target C CJ mRNA and in the test on SMN2 CJ mRNA were 1000 to 10000 nM, greater than 10000 nM and less than 100 nM, respectively.
For the molecule `Cc1cn2cc(NC(=O)c3ccc(N4CCNCC4)c4cn(C)nc34)cc(C(F)(F)F)c2n1` [Compound 275], the AC50 in test [1] and in test [2] was 1000 to 10000 nM in each case. Besides, the IC50 in the test with HTT CJ mRNA is 1000 to 10000 nM; with Target C CJ mRNA, greater than 10000 nM; in the test on SMN2 CJ mRNA it was less than 100 nM.
Regarding `Cc1cn2cc(NC(=O)c3ccc(N4CCNC(C)C4)c4cn(C)nc34)cc(Cl)c2n1` (stereo not drawn) [Compound 277, N-{8-chloro-2-methylimidazo[1,2-a]pyridine-6-yl}-2-methyl-4-(3-methylpiperazin-1-yl)indazole-7-carboxamide], the AC50 in test [1] and in test [2] was 100 to 1000 nM in each case. For the same molecule, the half-inhibitory concentration (IC50) in the test with HTT CJ mRNA was 100 to 1000 nM; with Target C CJ mRNA, 1000 to 10000 nM; with SMN2 CJ mRNA it was less than 100 nM.
Consider `Cc1cn2cc(NC(=O)c3ccc(N4CCC(N(C)C)C4)c4cn(C)nc34)cc(Cl)c2n1` (stereo not drawn) [Compound 278, N-{8-chloro-2-methylimidazo[1,2-a]pyridin-6-yl}-4-[3-(dimethylamino)pyrrolidin-1-yl]-2-methylindazole-7-carboxamide], for which the AC50 in test [1] and in test [2] was 1000 to 10000 nM each time. Further, the IC50 is 1000 to 10000 nM with HTT CJ mRNA, 1000 to 10000 nM with Target C CJ mRNA and less than 100 nM in the test with SMN2 CJ mRNA.
Regarding `Cc1cn2cc(NC(=O)c3ccc(N4C[C@H]5CC[C@@H](C4)N5)c4cn(C)nc34)cc(Cl)c2n1` [Compound 279, N-{8-chloro-2-methylimidazo[1,2-a]pyridin-6-yl}-4-[(1R,5S)-3,8-diazabicyclo[3.2.1]octan-3-yl]-2-methylindazole-7-carboxamide], the AC50 in test [1] and in test [2] was 1000 to 10000 nM in each case. Also, the results for the IC50 with HTT CJ mRNA, in the test with Target C CJ mRNA and with SMN2 CJ mRNA were 1000 to 10000 nM, greater than 10000 nM and less than 100 nM, respectively.
For `Cc1cn2cc(-c3ccc(C(=O)NC4CCNCC4)c4nn(C)cc34)cc(F)c2n1` [Compound 280, 4-{8-fluoro-2-methylimidazo[1,2-a]pyridin-6-yl}-2-methyl-N-(piperidin-4-yl)indazole-7-carboxamide], the AC50 in test [1] and in test [2] was 1000 to 10000 nM throughout. The IC50 was 1000 to 10000 nM in the test on HTT CJ mRNA, greater than 10000 nM with Target C CJ mRNA and 1000 to 10000 nM in the test with SMN2 CJ mRNA.
Regarding `Cc1cn2nc(-c3ccc(C(=O)NC4CCNCC4)c4nn(C)cc34)cc(C)c2n1` [Compound 281, 4-{2,8-dimethylimidazo[1,2-b]pyridazin-6-yl}-2-methyl-N-(piperidin-4-yl)indazole-7-carboxamide], the AC50 in test [1] and in test [2] was 1000 to 10000 nM in each case. Further, the IC50 in the test on HTT CJ mRNA fell in the range of 1000 to 10000 nM; in the test with Target C CJ mRNA it was 1000 to 10000 nM; with SMN2 CJ mRNA, 100 to 1000 nM.
